Measured values: patent US20250074911A1, “MACROCYCLIC BTK INHIBITORS” (Crossfire Oncology Holding B.V., priority 2021, published 2025)

Columns and labels:
REC-1 T474I cell lines = assay: Cell proliferation assay REC-1 BTK T474I knock-in cells (ATPlite, 72 hours); type: cell-based; conditions: Homo sapiens, Rec1; 72 hours; read-out: IC50 REC-1 T474I
How it was run: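 REC-1 cells carrying CRISPR knock-in mutant BTK, single-cell cloned and sequence-confirmed, were exposed to compound for 72 h and read by ATPlite luminescence. Percentage growth was calculated against the signal at the start of incubation and against untreated 0.3% DMSO wells as maximum growth.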

[1] = molecular target: full-length BTK C481S enzyme (Homo sapiens (Human), UniProt Q06187, C481S); assay: Biochemical kinase assay BTK C481S (IMAP)
Chain of full-length BTK C481S enzyme (Q06187 whole entry C481S): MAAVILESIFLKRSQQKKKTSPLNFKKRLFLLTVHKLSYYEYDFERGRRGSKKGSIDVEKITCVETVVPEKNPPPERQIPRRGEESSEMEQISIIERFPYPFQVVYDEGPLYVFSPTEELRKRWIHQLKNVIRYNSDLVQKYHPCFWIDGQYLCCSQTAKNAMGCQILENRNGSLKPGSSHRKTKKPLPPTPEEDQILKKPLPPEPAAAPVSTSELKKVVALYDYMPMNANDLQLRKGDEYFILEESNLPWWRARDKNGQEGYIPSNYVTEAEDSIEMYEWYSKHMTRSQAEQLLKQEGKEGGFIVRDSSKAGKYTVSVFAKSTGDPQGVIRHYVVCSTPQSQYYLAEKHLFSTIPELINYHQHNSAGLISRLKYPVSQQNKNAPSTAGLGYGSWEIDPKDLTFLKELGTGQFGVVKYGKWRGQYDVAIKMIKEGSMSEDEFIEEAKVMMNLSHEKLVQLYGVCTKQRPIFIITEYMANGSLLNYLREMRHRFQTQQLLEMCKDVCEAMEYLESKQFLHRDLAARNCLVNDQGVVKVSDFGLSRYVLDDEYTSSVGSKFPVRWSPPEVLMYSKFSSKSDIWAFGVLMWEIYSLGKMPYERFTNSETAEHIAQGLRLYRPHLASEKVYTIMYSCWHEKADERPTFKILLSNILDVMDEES
How it was run: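 IC50 values come from IMAP fluorescence polarization after quenching with progressive binding solution. The reaction ran 2 h at room temperature in the dark with 1.2 nM full-length C481S enzyme, 7 μM ATP and 50 nM fluorescein-labelled MBP-derived peptide, following a 1 h dark pre-incubation of compound with enzyme.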

[2] = molecular target: full-length wt-BTK enzyme (Homo sapiens (Human), UniProt Q06187); assay: Biochemical kinase assay wt-BTK (IMAP)
Chain of full-length wt-BTK enzyme (Q06187 whole entry): as the sequence (Q06187 whole entry C481S) above, with S481C counted along it
How it was run: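 Compound and enzyme (final 1.2 nM) were pre-incubated for 1 h at RT, after which the reaction was started with 4 μM ATP plus 50 nM fluorescein-MBP substrate peptide. After 2 h in the dark, the IMAP progressive binding reagent stopped the reaction, and phosphorylation was read by fluorescence polarization.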

[3] = test system: wt-REC-1 mantle cell lymphoma cells; assay: Cell proliferation assay wt-REC-1 (ATPlite, 72 hours); type: cell-based; conditions: 72 h; read-out: IC50 wt-REC-1
How it was run: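 Luminescent viability read over 72 h, start-of-incubation signal recorded separately to separate growth from cell death. Percentage growth referenced to compound-free 0.3% DMSO wells; IC50 from 4-parameter logistic fit.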

[4] = test system: wt-TMD8 diffuse large B-cell lymphoma cells; assay: Cell proliferation assay wt-TMD8 (ATPlite, 120 hours); type: cell-based; conditions: B-cell; wt-TMD8 cells, 120 hours, ATPlite; read-out: IC50 wt-TMD8
Method: Cell proliferation assay wt-TMD8 diffuse large B-cell lymphoma cells were purchased from Tokyo Medical and Dental University and cultured in RPMI-1640 cell culture medium (cat. no. 61870036, Life Technologies), supplemented with 10% (v/v) heat-inactivated fetal bovine calf serum and 1% penicillin/[…]. 1600 cells per well (in 45 μl) were seeded in a white 384-well culture plate (cat. no. 781080, Greiner Bio-One) and allowed to rest for at least 5 hours at 37° C., 95% humidity, and 5% CO2. 5 μl compound solution was added to the cells and incubation was continued for 120 hours (5 days), followed by addition of 24 μl ATPlite 1Step™ (PerkinElmer, Groningen, The Netherlands) solution was added to each well. Luminescence was recorded on an Envision multimode reader. The cell signal at the start of incubation was recorded separately in order to distinguish between cell population growth and cell death. In addition, maximum growth was determined by incubation of a duplicate without compound in the presence of 0.3% DMSO. Percentage growth was used as the main y-axis signal.

Structure (SMILES) | IC50 [1] | IC50 [2] | IC50 [3] | IC50 [4] | IC50 (REC-1 T474I cell lines)
Nc1ncc2c3c1c(-c1ccc(C(=O)Nc4cc(C(F)(F)F)ccn4)cc1)nn3[C@@H]1CCC[C@H](C1)NC(=O)CCCCC/C=C/2 [Example 37] | < 5 nM | < 5 nM | < 100 nM | < 100 nM | < 100 nM
CN1CC/C=C/c2cnc(N)c3c(-c4ccc(C(=O)Nc5cc(C(F)(F)F)ccn5)cc4)nn(c23)[C@@H]2CCC[C@H](C2)NC(=O)CC1 [Example 38] | < 5 nM | < 5 nM | < 100 nM | < 100 nM | < 100 nM
CN1CCC/C=C/c2cnc(N)c3c(-c4ccc(C(=O)Nc5cc(C(F)(F)F)ccn5)cc4)nn(c23)[C@@H]2CCC[C@H](C2)NC(=O)C1 [Example 41] | < 5 nM | < 5 nM | < 100 nM | < 100 nM | < 100 nM
C[C@H]1/C=C/c2cnc(N)c3c(-c4ccc(C(=O)Nc5cc(C(F)(F)F)ccn5)cc4)nn(c23)[C@@H]2CCC[C@H](C2)NC(=O)CCCN1C [Example 43] | < 5 nM | < 5 nM | 100 to 1000 nM | < 100 nM | 500 to 10000 nM
C[C@@H]1CCn2nc(-c3ccc(C(=O)Nc4cc(C(F)(F)F)ccn4)cc3)c3c(N)ncc(c32)/C=C/CN2CC[C@H]2C(=O)N1 [Example 55] | < 5 nM | < 5 nM | 100 to 1000 nM | < 100 nM | 500 to 10000 nM
C[C@@H]1CCn2nc(-c3ccc(C(=O)Nc4cc(C(F)(F)F)ccn4)cc3)c3c(N)ncc(c32)/C=C/CCCCCC(=O)N1 [Example 60] | < 5 nM | < 5 nM | < 100 nM | < 100 nM | 500 to 10000 nM
C[C@@H]1CCn2nc(-c3ccc(C(=O)Nc4cc(C(F)(F)F)ccn4)cc3)c3c(N)ncc(c32)/C=C/CCOCCC(=O)N1 [Example 69] | < 5 nM | < 5 nM | 100 to 1000 nM | < 100 nM | 100 to 500 nM
C[C@@H]1CCn2nc(-c3ccc(C(=O)Nc4cc(C(F)(F)F)ccn4)cc3)c3c(N)ncc(c32)/C=C/CCCOCC(=O)N1 [Example 70] | < 5 nM | < 5 nM | < 100 nM | < 100 nM | 500 to 10000 nM
C[C@@H]1CCn2nc(-c3ccc(C(=O)Nc4cc(C(F)(F)F)ccn4)cc3)c3c(N)ncc(c32)/C=C/C[C@@H](C)OCCC(=O)N1 [Example 72] | < 5 nM | < 5 nM | < 100 nM | < 100 nM | 500 to 10000 nM
C[C@@H]1CCn2nc(-c3ccc(C(=O)Nc4cc(C(F)(F)F)ccn4)cc3)c3c(N)ncc(c32)/C=C/C[C@H](C)OCCC(=O)N1 [Example 73] | < 5 nM | < 5 nM | < 100 nM | < 100 nM | 100 to 500 nM
C[C@@H]1CCn2nc(-c3ccc(C(=O)Nc4cc(C(F)(F)F)ccn4)cc3)c3c(N)ncc(c32)/C=C/CCN2CC[C@@H]2C(=O)N1 [Example 74] | < 5 nM | < 5 nM | 100 to 1000 nM | < 100 nM | 500 to 10000 nM
CC1CCn2nc(-c3ccc(C(=O)Nc4cc(C(F)(F)F)ccn4)cc3)c3c(N)ncc(c32)/C=C/C(O)CCCCC(=O)N1 (stereo not drawn) [Example 75] | < 5 nM | < 5 nM | 100 to 1000 nM | < 100 nM | 500 to 10000 nM
CN1C/C=C/c2cnc(N)c3c(-c4ccc(C(=O)Nc5cc(C(F)(F)F)ccn5)cc4)nn(c23)[C@@H]2CCCN(C2)C(=O)CCCC1 [Example 82] | < 5 nM | < 5 nM | 100 to 1000 nM | < 100 nM | 500 to 10000 nM

Second part, led by results:

IC50 [1] | IC50 [2] | IC50 [3] | IC50 [4] | Structure (SMILES) | IC50 (REC-1 T474I cell lines)
< 5 nM | < 5 nM | < 100 nM | < 100 nM | Nc1ncc2c3c1c(-c1ccc(C(=O)Nc4cc(C(F)(F)F)ccn4)cc1)nn3[C@@H]1CCC[C@H](C1)NC(=O)[C@H]1CCN1CC/C=C/2 [Example 42] | 100 to 500 nM
5 to 50 nM | 5 to 50 nM | 100 to 1000 nM | 100 to 1000 nM | Nc1ncc2c3c1c(-c1ccc(C(=O)Nc4cc(C(F)(F)F)ccn4)cc1)nn3[C@@H]1CCCN(C1)C(=O)CCCC/C=C/2 [Example 77] | 500 to 10000 nM
< 5 nM | < 5 nM | 100 to 1000 nM | < 100 nM | Nc1ncc2c3c1c(-c1ccc(C(=O)Nc4cc(C(F)(F)F)ccn4)cc1)nn3[C@@H]1CCCN(C1)C(=O)CCCCC/C=C/2 [Example 78] | 500 to 10000 nM
< 5 nM | < 5 nM | < 100 nM | < 100 nM | Nc1ncc2c3c1c(-c1ccc(C(=O)Nc4cc(C(F)(F)F)ccn4)cc1)nn3[C@@H]1CCCN(C1)C(=O)CCCCCCC/C=C/2 [Example 80] | < 100 nM
< 5 nM | < 5 nM | < 100 nM | < 100 nM | Nc1ncc2c3c1c(-c1ccc(C(=O)Nc4cc(C(F)(F)F)ccn4)cc1)nn3[C@@H]1CCCN(C1)C(=O)CCCCCCCC/C=C/2 [Example 81] | 100 to 500 nM
50 to 500 nM | 5 to 50 nM | 100 to 1000 nM | 100 to 1000 nM | Nc1ncc2c3c1c(-c1ccc(C(=O)Nc4cc(C(F)(F)F)ccn4)cc1)nn3[C@@H]1CCC[C@H](C1)C(=O)NCC/C=C\C2 [Example 86] | 500 to 10000 nM
< 5 nM | 5 to 50 nM | 100 to 1000 nM | < 100 nM | Nc1ncc2c3c1c(-c1ccc(C(=O)Nc4cc(C(F)(F)F)ccn4)cc1)nn3[C@@H]1CCC[C@H](C1)NC(=O)COC/C=C\C2 [Example 97b] | 500 to 10000 nM
5 to 50 nM | 5 to 50 nM | 100 to 1000 nM | < 100 nM | Nc1ncc2c3c1c(-c1ccc(C(=O)Nc4ccccn4)cc1)nn3[C@@H]1CCC[C@H](C1)NC(=O)CCC/C=C\C2 [Example 99b] | 500 to 10000 nM
< 5 nM | < 5 nM | 100 to 1000 nM | < 100 nM | Nc1ncc2c3c1c(-c1ccc(C(=O)Nc4cc(C(F)(F)F)ccn4)cc1)nn3[C@@H]1CCC[C@H](C1)NC(=O)CCCCC/C=C\C2 [Example 101b] | 500 to 10000 nM
< 5 nM | 5 to 50 nM | 100 to 1000 nM | < 100 nM | Nc1ncc2c3c1c(-c1ccc(C(=O)Nc4ccccn4)cc1)nn3[C@@H]1CCC[C@H](C1)NC(=O)CCCCC/C=C\C2 [Example 102b] | 500 to 10000 nM
< 5 nM | < 5 nM | 100 to 1000 nM | < 100 nM | Nc1ncc2c3c1c(-c1ccc(C(=O)Nc4cc(C(F)(F)F)ccn4)cc1)nn3[C@@H]1CCC[C@H](C1)NC(=O)CCCCCC/C=C\C2 [Example 103b] | 100 to 500 nM
5 to 50 nM | 50 to 500 nM | 100 to 1000 nM | 100 to 1000 nM | Nc1ncc2c3c1c(-c1ccc(C(=O)Nc4ccccn4)cc1)nn3[C@@H]1CCC[C@H](C1)NC(=O)COC/C=C\C2 [Example 104b] | 500 to 10000 nM
5 to 50 nM | 5 to 50 nM | 1000 to 10000 nM | 100 to 1000 nM | Nc1ncc2c3c1c(-c1ccc(C(=O)Nc4cc(C(F)(F)F)ccn4)cc1)nn3[C@@H]1CCC[C@H](C1)NC(=O)CNC/C=C\C2 [Example 105] | 500 to 10000 nM
< 5 nM | < 5 nM | < 100 nM | < 100 nM | Nc1ncc2c3c1c(-c1ccc(C(=O)Nc4ccccn4)cc1)nn3[C@@H]1CCC[C@H](C1)C(=O)NCCCCCCC2 [Example 118] | 500 to 10000 nM
< 5 nM | < 5 nM | < 100 nM | < 100 nM | Nc1ncc2c3c1c(-c1ccc(C(=O)Nc4cc(C(F)(F)F)ccn4)cc1)nn3[C@@H]1CCC[C@H](C1)C(=O)NCCCCCCCC2 [Example 119] | 500 to 10000 nM
< 5 nM | < 5 nM | 100 to 1000 nM | < 100 nM | Nc1ncc2c3c1c(-c1ccc(C(=O)Nc4ccccn4)cc1)nn3[C@@H]1CCC[C@H](C1)C(=O)NCCCCCCCCC2 [Example 123] | 500 to 10000 nM
< 5 nM | < 5 nM | 100 to 1000 nM | < 100 nM | [2H]C1CCCCNC(=O)[C@@H]2CCC[C@H](C2)n2nc(-c3ccc(C(=O)Nc4cc(C(F)(F)F)ccn4)cc3)c3c(N)ncc(c32)C1[2H] (stereo partly drawn) [Example 128] | 100 to 500 nM
